Test results reported in US10336732B2, “1-heterocyclyl isochromanyl compounds and analogs for treating CNS disorders” (Sunovion Pharmaceuticals Inc., priority 2015, dated 2019).

Test system: mice
Assay: Neuropharmacological assay (SmartCube), behavioral signature of compound-treated mice
Format: in vivo
Conditions: i.p. 15 min before behavioral test, most efficacious dose(s) of 3 doses
Excerpt: Neurosci. […] As reported in Roberds, because psychiatric diseases generally result from disorders of cell-cell communication or circuitry, intact systems are useful in detecting improvement in disease-relevant endpoints. These endpoints are typically behavioral in nature, often requiring human observation and interpretation. To facilitate testing of multiple compounds for behavioral effects relevant to psychiatric disease, PsychoGenics, Inc. (Tarrytown, N.Y., “PGI”) developed SmartCube™, an automated system in which behaviors of compound-treated mice are captured by digital video and analyzed with computer algorithms. […] PGI Analytical Systems uses data from SmartCube™ to compare the behavioral signature of a test compound to a database of behavioral signatures obtained using a large set of diverse reference compounds. (The composition of the database as well as validation of the method is further described in Roberds). In this way, the neuropharmacological effects of a test compound can be predicted by similarity to major classes of compounds, such as antipsychotics, anxiolytics and antidepressants.
The SmartCube™ system produces an activity signature indicating the probability that the activity of the test compound at the administered dose matches a given class of neuropharmacological agents. (See, e.g., Roberds, FIGS. 2 and 3). The test compound is simultaneously compared against multiple classes of agents; thus, a separate probability is generated for each behavioral effect measured (e.g., anxiolytic activity, analgesic activity, etc.). In Table 4, these probabilities are reported for each behavioral effect measured as follows:
Provided compounds were dissolved in a mixture of Pharmasolve™ (N-methyl-2-pyrrolidone), polyethylene glycol and propylene glycol, and were injected i.p. 15 min. before the behavioral test. For each compound, injections were administered at 3 different doses. For each behavioral effect measured, results for the most efficacious dose(s) are presented.

Question: With `FC1(F)CO[C@@H]([C@@H]2CCCN2)c2ccccc21` [Compound I-140, (S)-2-((R)-4,4-difluoroisochroman-1-yl)pyrrolidine] as the compound, how does the “AD: ADHD (probability that behavioral signature matches class)” value (“AD: ADHD” below) read?
Answer: + (LOQ ≤ + <5%)

Question: What about the “AG: analgesic (probability that behavioral signature matches class)” value (from here on “AG: analgesic”) of the same compound?
Answer: ++ (5% ≤ ++ <25%)

Question: What about the “AX: anxiolytic (probability that behavioral signature matches class)” value (“AX: anxiolytic” below) of the same compound?
Answer: ++ (5% ≤ ++ <25%)

Question: What about the “CE: cognitive enhancer (probability that behavioral signature matches class)” value (“CE: cognitive enhancer” below) of the same compound?
Answer: +++ (25% ≤ +++ <50%)

Question: What about the “DP: anti-depressant (probability that behavioral signature matches class)” value (“DP: anti-depressant” below) of the same compound?
Answer: ++ (5% ≤ ++ <25%)

Question: And the “HA: hallucinogen (probability that behavioral signature matches class)” value (“HA: hallucinogen” for short)?
Answer: + (LOQ ≤ + <5%)

Question: And the “MS: mood stabilizer (probability that behavioral signature matches class)” value (shortened to “MS: mood stabilizer”)?
Answer: ++ (5% ≤ ++ <25%)

Question: What about the “PS: anti-psychotic (probability that behavioral signature matches class)” value (shortened to “PS: anti-psychotic”) of the same compound?
Answer: ++ (5% ≤ ++ <25%)

Question: What about the “SD: sedative hypnotic (probability that behavioral signature matches class)” value (from here on “SD: sedative hypnotic”) of the same compound?
Answer: +++ (25% ≤ +++ <50%)

Question: What about the “UN: uncharacterized CNS activity (probability that behavioral signature matches class)” value (“UN: uncharacterized CNS activity” below) of the same compound?
Answer: ++ (5% ≤ ++ <25%)

Question: What about the “XG: anxiogenic (probability that behavioral signature matches class)” value (from here on “XG: anxiogenic”) of the same compound?
Answer: + (LOQ ≤ + <5%)

Question: What does the source list for `Clc1ccc2c(c1)[C@H]([C@H]1CCCN1)OCC2` [Compound I-31, (R)-2-((R)-7-chloroisochroman-1-yl)pyrrolidine]?
Answer: AD: ADHD (probability that behavioral signature matches class): + (LOQ ≤ + <5%); AG: analgesic (probability that behavioral signature matches class): ++ (5% ≤ ++ <25%); AX: anxiolytic (probability that behavioral signature matches class): +++ (25% ≤ +++ <50%); CE: cognitive enhancer (probability that behavioral signature matches class): ++ (5% ≤ ++ <25%); DP: anti-depressant (probability that behavioral signature matches class): ++ (5% ≤ ++ <25%); HA: hallucinogen (probability that behavioral signature matches class): + (LOQ ≤ + <5%); MS: mood stabilizer (probability that behavioral signature matches class): ++ (5% ≤ ++ <25%); PS: anti-psychotic (probability that behavioral signature matches class): +++ (25% ≤ +++ <50%); SD: sedative hypnotic (probability that behavioral signature matches class): ++ (5% ≤ ++ <25%); UN: uncharacterized CNS activity (probability that behavioral signature matches class): + (LOQ ≤ + <5%); XG: anxiogenic (probability that behavioral signature matches class): + (LOQ ≤ + <5%)

Question: For `Fc1cccc2c1[C@H]([C@H]1CCCN1)OCC2` [Compound I-4, (R)-2-((R)-8-fluoroisochroman-1-yl)pyrrolidine], which “AD: ADHD” value is on record?
Answer: + (LOQ ≤ + <5%)

Question: What about the “AG: analgesic” value of the same compound?
Answer: ++ (5% ≤ ++ <25%)

Question: What about the “AX: anxiolytic” value of the same compound?
Answer: +++ (25% ≤ +++ <50%)

Question: And the “CE: cognitive enhancer” value?
Answer: ++ (5% ≤ ++ <25%)

Question: And the “DP: anti-depressant” value?
Answer: ++ (5% ≤ ++ <25%)

Question: What about the “HA: hallucinogen” value of the same compound?
Answer: + (LOQ ≤ + <5%)

Question: What about the “MS: mood stabilizer” value of the same compound?
Answer: + (LOQ ≤ + <5%)

Question: And the “PS: anti-psychotic” value?
Answer: ++ (5% ≤ ++ <25%)

Question: What about the “SD: sedative hypnotic” value of the same compound?
Answer: + (LOQ ≤ + <5%)

Question: And the “UN: uncharacterized CNS activity” value?
Answer: + (LOQ ≤ + <5%)

Question: What about the “XG: anxiogenic” value of the same compound?
Answer: + (LOQ ≤ + <5%)

Question: What does the source list for `c1ccc2c(c1)CCO[C@H]2[C@H]1CCCN1` [Compound I-19, (R)-2-((R)-isochroman-1-yl)pyrrolidine]?
Answer: AD: ADHD (probability that behavioral signature matches class): + (LOQ ≤ + <5%); AG: analgesic (probability that behavioral signature matches class): + (LOQ ≤ + <5%); AX: anxiolytic (probability that behavioral signature matches class): ++ (5% ≤ ++ <25%); CE: cognitive enhancer (probability that behavioral signature matches class): ++ (5% ≤ ++ <25%); DP: anti-depressant (probability that behavioral signature matches class): + (LOQ ≤ + <5%); HA: hallucinogen (probability that behavioral signature matches class): + (LOQ ≤ + <5%); MS: mood stabilizer (probability that behavioral signature matches class): + (LOQ ≤ + <5%); PS: anti-psychotic (probability that behavioral signature matches class): ++++ (50% ≤ ++++); SD: sedative hypnotic (probability that behavioral signature matches class): + (LOQ ≤ + <5%); UN: uncharacterized CNS activity (probability that behavioral signature matches class): ++++ (50% ≤ ++++); XG: anxiogenic (probability that behavioral signature matches class): + (LOQ ≤ + <5%)

Question: With `Fc1ccc2c(c1)[C@H]([C@H]1CCCN1)OCCC2` [Compound I-109, (R)-2-((R)-8-fluoro-1,3,4,5-tetrahydrobenzo[c]oxepin-1-yl)pyrrolidine] as the compound, how does the “AD: ADHD” value read?
Answer: + (LOQ ≤ + <5%)

Question: What about the “AG: analgesic” value of the same compound?
Answer: ++ (5% ≤ ++ <25%)

Question: And the “AX: anxiolytic” value?
Answer: ++ (5% ≤ ++ <25%)

Question: And the “CE: cognitive enhancer” value?
Answer: + (LOQ ≤ + <5%)

Question: And the “DP: anti-depressant” value?
Answer: +++ (25% ≤ +++ <50%)

Question: What about the “HA: hallucinogen” value of the same compound?
Answer: + (LOQ ≤ + <5%)

Question: What about the “MS: mood stabilizer” value of the same compound?
Answer: ++ (5% ≤ ++ <25%)

Question: And the “PS: anti-psychotic” value?
Answer: ++ (5% ≤ ++ <25%)

Question: What about the “SD: sedative hypnotic” value of the same compound?
Answer: ++ (5% ≤ ++ <25%)

Question: What about the “UN: uncharacterized CNS activity” value of the same compound?
Answer: ++ (5% ≤ ++ <25%)

Question: What about the “XG: anxiogenic” value of the same compound?
Answer: + (LOQ ≤ + <5%)

Question: Which “AD: ADHD” value does the source give for `Cc1ccc2c(c1)[C@@H](C1CNC1)OCC2` [Compound I-116, (R)-3-(7-methylisochroman-1-yl)azetidine] here?
Answer: + (LOQ ≤ + <5%)

Question: And the “AG: analgesic” value?
Answer: + (LOQ ≤ + <5%)

Question: And the “AX: anxiolytic” value?
Answer: ++ (5% ≤ ++ <25%)

Question: What about the “CE: cognitive enhancer” value of the same compound?
Answer: + (LOQ ≤ + <5%)

Question: What about the “DP: anti-depressant” value of the same compound?
Answer: ++ (5% ≤ ++ <25%)

Question: What about the “HA: hallucinogen” value of the same compound?
Answer: + (LOQ ≤ + <5%)

Question: And the “MS: mood stabilizer” value?
Answer: + (LOQ ≤ + <5%)

Question: What about the “PS: anti-psychotic” value of the same compound?
Answer: +++ (25% ≤ +++ <50%)

Question: And the “SD: sedative hypnotic” value?
Answer: ++ (5% ≤ ++ <25%)

Question: And the “UN: uncharacterized CNS activity” value?
Answer: + (LOQ ≤ + <5%)

Question: And the “XG: anxiogenic” value?
Answer: + (LOQ ≤ + <5%)

Question: With `Cc1cccc2c1[C@H]([C@H]1CCCN1)OCC2` [Compound I-23, (R)-2-((R)-8-methylisochroman-1-yl)pyrrolidine] as the compound, how does the “AD: ADHD” value read?
Answer: + (LOQ ≤ + <5%)

Question: What about the “AG: analgesic” value of the same compound?
Answer: +++ (25% ≤ +++ <50%)

Question: What about the “AX: anxiolytic” value of the same compound?
Answer: ++ (5% ≤ ++ <25%)

Question: And the “CE: cognitive enhancer” value?
Answer: ++ (5% ≤ ++ <25%)

Question: And the “DP: anti-depressant” value?
Answer: ++ (5% ≤ ++ <25%)

Question: And the “HA: hallucinogen” value?
Answer: + (LOQ ≤ + <5%)

Question: And the “MS: mood stabilizer” value?
Answer: ++ (5% ≤ ++ <25%)

Question: And the “PS: anti-psychotic” value?
Answer: +++ (25% ≤ +++ <50%)

Question: And the “SD: sedative hypnotic” value?
Answer: ++ (5% ≤ ++ <25%)

Question: What about the “UN: uncharacterized CNS activity” value of the same compound?
Answer: + (LOQ ≤ + <5%)

Question: What about the “XG: anxiogenic” value of the same compound?
Answer: + (LOQ ≤ + <5%)

Question: What does the source list for `Fc1ccc2c(c1)CCO[C@@H]2[C@@H]1CCCCN1` [Compound I-73, (S)-2-((S)-6-fluoroisochroman-1-yl)piperidine]?
Answer: AD: ADHD (probability that behavioral signature matches class): + (LOQ ≤ + <5%); AG: analgesic (probability that behavioral signature matches class): ++ (5% ≤ ++ <25%); AX: anxiolytic (probability that behavioral signature matches class): ++ (5% ≤ ++ <25%); CE: cognitive enhancer (probability that behavioral signature matches class): ++ (5% ≤ ++ <25%); DP: anti-depressant (probability that behavioral signature matches class): ++ (5% ≤ ++ <25%); HA: hallucinogen (probability that behavioral signature matches class): + (LOQ ≤ + <5%); MS: mood stabilizer (probability that behavioral signature matches class): ++ (5% ≤ ++ <25%); PS: anti-psychotic (probability that behavioral signature matches class): + (LOQ ≤ + <5%); SD: sedative hypnotic (probability that behavioral signature matches class): + (LOQ ≤ + <5%); UN: uncharacterized CNS activity (probability that behavioral signature matches class): +++ (25% ≤ +++ <50%); XG: anxiogenic (probability that behavioral signature matches class): + (LOQ ≤ + <5%)
